# Publication PMC5099944, “Design, synthesis and biological evaluation of hybrids of β-carboline and salicylic acid as potential anticancer and apoptosis inducing agents” (Scientific Reports, 2016)
# Columns and labels:
# [1] = tested on: H460 cells; experiment: MTT assay, proliferation of H460 cells; type: cell-based; conditions: NCI-H460, 48 h, H460 human lung cancer cells, read-out: In vitro cytotoxicity (IC50) H460
# Description: (§1) The in vitro antitumor activities of the synthesized compounds 7a-l and 8a-l against five human cancer cells were evaluated in MTT assays using 5-fluorouracil (5-FU) and harmine as positive controls. These cells are human hepatocellular carcinoma cells (SMMC-7721 and Hep G2), human colon cancer cell lines (HCT116), human bladder carcinoma cells (EJ), and human lung cancer cells (H460).
# (§2) Hepatocellular carcinoma cells (SMMC-7721 and Hep G2), Human colon cancer cell lines (HCT116), human bladder carcinoma cells (EJ) or human lung cancer cells (H460) at 10^4 cells per well were cultured in 10% FBS DMEM in 96-well flat-bottom microplates overnight. The cells were incubated in triplicate with, or without, different concentrations of each test compound for 48 h. During the last 4 h incubation, 30 μL of tetrazolium dye (MTT) solution (5 mg mL^−1) was added to each well. The resulting MTT-formazan crystals were dissolved in 150 μL DMSO, and absorbance was measured spectrophotometrically at 570 nm using an ELISA plate reader. The inhibition induced by each test compound at the indicated concentrations was expressed as a percentage. The concentration required for 50% inhibition (IC50) was calculated using the software (GraphPadPrism Version 4.03).
# [2] = tested on: human cancer cells (SMMC-7721, Hep G2, HCT116, EJ, H460); experiment: MTT assay, summary statements across several human cancer cell lines; type: cell-based
# Description: as §1, §2
# [3] = tested on: SMMC-7721 cells; experiment: MTT assay, proliferation of SMMC-7721 cells; type: cell-based, human; conditions: Homo sapiens
# Description: as §1, §2
# [4] = tested on: LO2 cells; experiment: MTT assay, proliferation of normal liver LO2 cells; type: cell-based, human
# Description: Given the strong growth inhibitory activity of 8h in vitro, it was profiled for antitumor selectivity by examining its inhibitory effects on the growth of SMMC-7721 cells and LO2 cells (human hepatocellular normal cells).
# Figure 3 (A) Inhibitory effects of 8h on the proliferation of SMMC-7721 and LO2 cells. Cells were incubated with the indicated concentrations of 8h for 48 h. Cell proliferation was assessed using the MTT assay. Data are means ± SD of the inhibition (%) from three independent experiments. (B) Inhibitory effects of 5h, 8h, and SA or the vehicle control against SMMC-7721 and LO2 cells. SMMC-7721 and LO2 cells were incubated with the indicated compounds at 25 μM for 48 h, and cell proliferation was assessed by the MTT assay. Data are means ± SD of the inhibition (%) from three independent experiments. *P < 0.01 versus control of SMMC-7721, ^#P < 0.01 inhibitory effects of 8h in SMMC-7721 versus LO2 cells.
# as §2
# [5] = tested on: EJ cells; experiment: MTT assay, proliferation of EJ cells; type: cell-based; conditions: 48 h, EJ human bladder carcinoma cells, read-out: In vitro cytotoxicity (IC50) EJ
# Description: as §1, §2
# [6] = tested on: SMMC-7721 cells; experiment: Mitochondrial membrane potential assay (JC-1); type: cell-based, human; conditions: 14 μM, 48 h (method b112 says 24 h)
# Description: The mitochondrial pathway plays an important role in cell apoptosis. To determine whether mitochondria is involved in the apoptosis-inducing effect of 8h, changes in mitochondrial membrane potential were investigated with a fluorescent probe JC-1. JC-1 is a lipophilic cationic dye which facilitates the penetration of mitochondrial membrane due to the decrease of membrane potential, indicated by a fluorescence shift from red to green. The cells were treated with vehicle alone, with different concentrations of 8h (7.0 or 14 μM), or 14 μM 5-FU for 48 h, and then stained with JC-1. […] The percentage of cells emitting green fluorescence reached 57% at the higher dose of 14 μM. The observations indicate that 8h plays a role in the dissipation of mitochondrial membrane potential and the apoptosis effect of 8h is associated with mitochondrial depolarization in cells.
# Mitochondrial membrane potential was assessed using a Beyotime (China) kit with JC-1. Briefly, the SMMC-7721 cells in the logarithmic growth phase were treated with 8h (7.0 or 14 μM), 5-FU (14 μM), or vehicle control for 24 h. The cells were harvested, and then labeled with JC-1 in accordance with the manufacturer’s instructions. The samples labeled with JC-1 were analyzed via flow cytometry. For the detection of JC-1, excitation was set at 530 nm, and emissions collected at 585 nm.
# [7] = tested on: SMMC-7721 cells; experiment: Flow cytometry assay of cell apoptosis (FITC-Annexin V/PI); type: cell-based, human; conditions: 48 h
# Description: To determine whether apoptosis is involved in the anti-proliferative effects of 8h, apoptosis assay was performed using SMMC-7721 cells. The cells were incubated with either vehicle alone, different concentrations of 8h (7.0 or 14 μM), or 14 μM 5-FU for 48 h, and then stained with FITC-Annexin V and propidium iodide (PI). The percentages of apoptotic SMMC-7721 cells were determined by flow cytometry analysis. In the vehicle group, the occurrence of SMMC-7721 cell apoptosis was minimal. […] Low concentration of 8h (7.0 μM) induced 46% SMMC-7721 cell apoptosis, while the higher dose (14 μM) of 8h induced 63% SMMC-7721 cell apoptosis.
# Figure 4 Compound 8h induced SMMC-7721 cell apoptosis in vitro. SMMC-7721 cells were incubated with the indicated concentrations of 8h and 14 μM 5-FU for 48 h, and the cells were stained with FITC-Annexin V and PI, followed by flow cytometry analysis. (A) Flow cytometry analysis. (B) Quantitative analysis of apoptotic cells. Data are expressed as means ± SD of the percentages of apoptotic cells from three independent experiments. *P < 0.01 vs control.
# SMMC-7721 cells were cultured overnight and incubated in triplicate with compound 8h (7.0 and 14 μM), 5-FU (14 μM), or vehicle for 48 h. The cells were harvested, and stained with FITC-Annexin V and PI (BioVision) at room temperature for 15 min. The percentage of apoptotic cells was determined by flow cytometry (Beckman Coulter) analysis.
# [8] = tested on: HCT116 cells; experiment: MTT assay, proliferation of HCT116 cells; type: cell-based; conditions: Homo sapiens, HCT-116, 48 h, read-out: In vitro cytotoxicity (IC50) HCT116
# Description: as §1, §2
smiles,measurement,setting,value
"Cc1nc(C(=O)NCCCCCNC(=O)c2ccccc2O)cc2c1[nH]c1ccccc12 [8h, N-(5-(2-Hydroxybenzamido)pentyl)-1-methyl-9H-pyrido[3,4-b]indole-3-carboxamide]",IC50,[1],13.1 µM
same,IC50,"[2]; Homo sapiens, SMMC-7721, Hep G2, HCT116, MTT, read-out: IC50 values for liver and colon cancer cells growth (range over cell lines)",6.97 to 8.25 µM
same,IC50 fold lower than that of 5-FU,[2]; liver and colon cancer cells,4~6 fold
same,IC50,"[3]; SMMC-7721, 48 h, read-out: In vitro cytotoxicity (IC50) SMMC-7721, MTT assay, 48 h, SMMC-7721 human hepatocellular carcinoma cells",6.97 µM
same,inhibition at 25 µM,"[3]; SMMC-7721, 25 μM, 48 h, MTT assay, read-out: Inhibition of SMMC-7721 cell proliferation",~90%
same,Inhibitory effect on LO2 cells,"[4]; 25 μM, 48 h, MTT assay",little inhibitory effects
same,IC50,"[4]; L02, MTT assay, 48 h, LO2 human hepatocellular normal cells, read-out: IC50 against liver normal LO2 cells",55.2 µM
same,Selectivity: IC50 on SMMC-7721 fold lower than against LO2 cells,[4]; SMMC-7721 vs LO2,9 fold
same,Growth inhibitory activity on non-cancer LO2 cells,"[4]; concentrations up to 25 μM, 48 h, MTT",no apparent growth inhibitory activity
same,IC50,[5],7.89 µM
same,Percentage of cells emitting green fluorescence (JC-1),[6],57%
same,SMMC-7721 cell apoptosis (percentage of apoptotic cells),[7]; 7.0 μM,46%
same,SMMC-7721 cell apoptosis (percentage of apoptotic cells),[7]; 14 μM,63%
same,IC50,[8],8.25 µM
